Assays:
Assay type in all cases: functional
MOLT-4 = experiment: Growth inhibition of human MOLT4 cells assessed as cell growth at 10^-8 M incubated for 48 hrs by sulforhodamine B assay relative to control; conditions: MOLT-4, 48 h, read-out: Activity
NCI-H226 = experiment: Growth inhibition of human NCI-H226 cells assessed as cell growth at 10^-5 M incubated for 48 hrs by sulforhodamine B assay relative to control; conditions: NCI-H226, 48 h, read-out: Activity
A549 = experiment: Growth inhibition of human A549/ATCC cells assessed as cell growth at 10^-6 M incubated for 48 hrs by sulforhodamine B assay relative to control; conditions: A549, 48 h, read-out: Activity
OVCAR-4 = experiment: Growth inhibition of human OVCAR4 cells assessed as cell growth at 10^-4 M incubated for 48 hrs by sulforhodamine B assay relative to control; conditions: OVCAR-4, 48 h, read-out: Activity
UACC-257 = experiment: Growth inhibition of human UACC257 cells assessed as cell growth at 10^-7 M incubated for 48 hrs by sulforhodamine B assay relative to control; conditions: UACC-257, 48 h, read-out: Activity
Hs-578T [1] = experiment: Cytotoxicity against human Hs 578T cells after 48 hrs by SRB assay; conditions: for GI50: read-out: pGI50 (converted)
Malme-3M = experiment: Growth inhibition of human MALME-3M cells assessed as cell growth at 10^-8 M incubated for 48 hrs by sulforhodamine B assay relative to control; conditions: read-out: Activity
CCRF-CEM [2] = experiment: Growth inhibition of human CCRF-CEM cells assessed as cell growth at 10^-8 M incubated for 48 hrs by sulforhodamine B assay relative to control; conditions: read-out: Activity
TK-10 = experiment: Growth inhibition of human TK10 cells assessed as cell growth at 10^-4 M incubated for 48 hrs by sulforhodamine B assay relative to control; conditions: TK-10, 48 h, read-out: Activity
Hs-578T [3] = experiment: Growth inhibition of human Hs 578T cells assessed as cell growth at 10^-5 M incubated for 48 hrs by sulforhodamine B assay relative to control; conditions: read-out: Activity
EKVX = experiment: Growth inhibition of human EKVX cells assessed as cell growth at 10^-8 M incubated for 48 hrs by sulforhodamine B assay relative to control; conditions: read-out: Activity
SF-539 [4] = experiment: Growth inhibition of human SF539 cells assessed as cell growth at 10^-8 M incubated for 48 hrs by sulforhodamine B assay relative to control; conditions: SF-539, 48 h, read-out: Activity
SK-MEL-2 = experiment: Growth inhibition of human SK-MEL-2 cells assessed as cell growth at 10^-8 M incubated for 48 hrs by sulforhodamine B assay relative to control; conditions: SK-MEL-2, 48 h, read-out: Activity
SK-MEL-28 [5] = experiment: Growth inhibition of human SK-MEL-28 cells assessed as cell growth at 10^-8 M incubated for 48 hrs by sulforhodamine B assay relative to control; conditions: SK-MEL-28, 48 h, read-out: Activity
SK-MEL-28 [6] = experiment: Growth inhibition of human SK-MEL-28 cells assessed as cell growth at 10^-5 M incubated for 48 hrs by sulforhodamine B assay relative to control; conditions: SK-MEL-28, 48 h, read-out: Activity
SF-295 = experiment: Growth inhibition of human SF295 cells assessed as cell growth at 10^-6 M incubated for 48 hrs by sulforhodamine B assay relative to control; conditions: SF-295, 48 h, read-out: Activity
DU-145 [7] = experiment: Growth inhibition of human DU145 cells assessed as cell growth at 10^-6 M incubated for 48 hrs by sulforhodamine B assay relative to control; conditions: DU-145, 48 h, read-out: Activity
MDA-MB-231 = experiment: Growth inhibition of human MDA-MB-231 cells assessed as cell growth at 10^-8 M incubated for 48 hrs by sulforhodamine B assay relative to control; conditions: MDA-MB-231, 48 h, read-out: Activity
RXF 393 = experiment: Growth inhibition of human RXF393 cells assessed as cell growth at 10^-7 M incubated for 48 hrs by sulforhodamine B assay relative to control; conditions: RXF 393, 48 h, read-out: Activity
RPMI-8226 = experiment: Growth inhibition of human RPMI8226 cells assessed as cell growth at 10^-8 M incubated for 48 hrs by sulforhodamine B assay relative to control; conditions: RPMI-8226, 48 h, read-out: Activity
SW-620 [8] = experiment: Growth inhibition of human SW620 cells assessed as cell growth at 10^-8 M incubated for 48 hrs by sulforhodamine B assay relative to control; conditions: SW-620, 48 h, read-out: Activity
CCRF-CEM [9] = experiment: Growth inhibition of human CCRF-CEM cells assessed as cell growth at 10^-6 M incubated for 48 hrs by sulforhodamine B assay relative to control; conditions: read-out: Activity
M14 = experiment: Growth inhibition of human M14 cells assessed as cell growth at 10^-5 M incubated for 48 hrs by sulforhodamine B assay relative to control; conditions: M14, 48 h, read-out: Activity
NCI-H522 = experiment: Growth inhibition of human NCI-H522 cells assessed as cell growth at 10^-7 M incubated for 48 hrs by sulforhodamine B assay relative to control; conditions: NCI-H522, 48 h, read-out: Activity
SW-620 [10] = experiment: Growth inhibition of human SW620 cells assessed as cell growth at 10^-4 M incubated for 48 hrs by sulforhodamine B assay relative to control; conditions: SW-620, 48 h, read-out: Activity
SF-539 [11] = experiment: Growth inhibition of human SF539 cells assessed as cell growth at 10^-7 M incubated for 48 hrs by sulforhodamine B assay relative to control; conditions: SF-539, 48 h, read-out: Activity
HCT-15 = experiment: Growth inhibition of human HCT15 cells assessed as cell growth at 10^-7 M incubated for 48 hrs by sulforhodamine B assay relative to control; conditions: HCT-15, 48 h, read-out: Activity
SW-620 [12] = experiment: Cytotoxicity against human SW620 cells after 48 hrs by SRB assay; conditions: SW-620, 48 h; for GI50: read-out: pGI50 (converted)
NCI/ADR-RES = experiment: Growth inhibition of human NCI/ADR-RES cells assessed as cell growth at 10^-7 M incubated for 48 hrs by sulforhodamine B assay relative to control; conditions: read-out: Activity
SK-MEL-5 = experiment: Growth inhibition of human SK-MEL-5 cells assessed as cell growth at 10^-6 M incubated for 48 hrs by sulforhodamine B assay relative to control; conditions: SK-MEL-5, 48 h, read-out: Activity
CCRF-CEM [13] = experiment: Growth inhibition of human CCRF-CEM cells assessed as cell growth at 10^-4 M incubated for 48 hrs by sulforhodamine B assay relative to control; conditions: read-out: Activity
DU-145 [14] = experiment: Cytotoxicity against human DU145 cells after 48 hrs by SRB assay; conditions: DU-145, 48 h; for CC50: read-out: LC50 (the source's name); for GI50: read-out: pGI50 (converted)
SF-268 = experiment: Growth inhibition of human SF268 cells assessed as cell growth at 10^-8 M incubated for 48 hrs by sulforhodamine B assay relative to control; conditions: SF-268, 48 h, read-out: Activity
[15] = read-out: LC50 (the source's name)
[16] = read-out: pLC50 (the source's name) (converted)

## C#C[C@@]1(O)[C@@H](CO)O[C@@H](n2cc(F)c3c(N)ncnc32)[C@@H]1O
MOLT-4
  growth at 0.01 µM: 99%
NCI-H226
  growth at 10 µM: -44%
A549
  growth at 1 µM: 19%
OVCAR-4
  growth at 100 µM: -25%
UACC-257
  growth at 0.1 µM: 85%
Hs-578T [1]; [15]
  CC50: > 100 µM
Hs-578T [1]; read-out: TGI
  TGI: > 100 µM
Hs-578T [1]
  GI50: 3.98 µM
Hs-578T [1]; read-out: pTGI
  TGI: > 100 µM
Malme-3M
  growth at 0.01 µM: 103%
CCRF-CEM [2]
  growth at 0.01 µM: 95%
TK-10
  growth at 100 µM: -24%
Hs-578T [3]
  growth at 10 µM: 18%
EKVX
  growth at 0.01 µM: 94%
SF-539 [4]
  growth at 0.01 µM: 104%
SK-MEL-2
  growth at 0.01 µM: 103%
SK-MEL-28 [5]
  growth at 0.01 µM: 102%
SK-MEL-28 [6]
  growth at 10 µM: 37%
SF-295
  growth at 1 µM: 40%
DU-145 [7]
  growth at 1 µM: 16%
MDA-MB-231
  growth at 0.01 µM: 99%
RXF 393
  growth at 0.1 µM: 102%
RPMI-8226
  growth at 0.01 µM: 94%
SW-620 [8]
  growth at 0.01 µM: 97%
CCRF-CEM [9]
  growth at 1 µM: 23%
M14
  growth at 10 µM: -48%
NCI-H522
  growth at 0.1 µM: 68%
SW-620 [10]
  growth at 100 µM: -23%
SF-539 [11]
  growth at 0.1 µM: 107%
HCT-15
  growth at 0.1 µM: 79%
SW-620 [12]; [15]
  CC50: > 100 µM
SW-620 [12]; read-out: TGI
  TGI: 2.9 µM
SW-620 [12]
  GI50: 0.158 µM
SW-620 [12]; read-out: pTGI (converted)
  TGI: 2.88 µM
NCI/ADR-RES
  growth at 0.1 µM: 76%
SK-MEL-5
  growth at 1 µM: 13%
CCRF-CEM [13]
  growth at 100 µM: 1%
DU-145 [14]
  CC50: > 100 µM
  GI50: 0.355 µM
DU-145 [14]; read-out: TGI
  TGI: 13.4 µM
DU-145 [14]; read-out: pTGI (converted)
  TGI: 13.5 µM
SF-268
  growth at 0.01 µM: 100%

## C#C[C@@]1(O)[C@@H](CO)O[C@@H](n2ccc3c(N)ncnc32)[C@@H]1O
MOLT-4
  growth at 0.01 µM: 96%
NCI-H226
  growth at 10 µM: -42%
A549
  growth at 1 µM: 56%
OVCAR-4
  growth at 100 µM: -100%
UACC-257
  growth at 0.1 µM: 105%
Hs-578T [1]; read-out: TGI
  TGI: > 100 µM
Hs-578T [1]
  GI50: 4.68 µM
Hs-578T [1]; [16]
  CC50: > 100 µM
Hs-578T [1]; read-out: pTGI
  TGI: > 100 µM
Malme-3M
  growth at 0.01 µM: 86%
CCRF-CEM [2]
  growth at 0.01 µM: 102%
TK-10
  growth at 100 µM: -5%
Hs-578T [3]
  growth at 10 µM: 19%
EKVX
  growth at 0.01 µM: 87%
SF-539 [4]
  growth at 0.01 µM: 92%
SK-MEL-2
  growth at 0.01 µM: 88%
SK-MEL-28 [5]
  growth at 0.01 µM: 93%
SK-MEL-28 [6]
  growth at 10 µM: 21%
SF-295
  growth at 1 µM: 74%
DU-145 [7]
  growth at 1 µM: 34%
MDA-MB-231
  growth at 0.01 µM: 104%
RXF 393
  growth at 0.1 µM: 111%
RPMI-8226
  growth at 0.01 µM: 103%
SW-620 [8]
  growth at 0.01 µM: 72%
CCRF-CEM [9]
  growth at 1 µM: 70%
M14
  growth at 10 µM: -80%
NCI-H522
  growth at 0.1 µM: 78%
SW-620 [10]
  growth at 100 µM: -45%
SF-539 [11]
  growth at 0.1 µM: 103%
HCT-15
  growth at 0.1 µM: 93%
SW-620 [12]; read-out: TGI
  TGI: 12.7 µM
SW-620 [12]
  GI50: 0.49 µM
SW-620 [12]; [16]
  CC50: > 100 µM
SW-620 [12]; read-out: pTGI (converted)
  TGI: 12.6 µM
NCI/ADR-RES
  growth at 0.1 µM: 92%
SK-MEL-5
  growth at 1 µM: 85%
CCRF-CEM [13]
  growth at 100 µM: 9%
DU-145 [14]
  CC50: > 100 µM
  GI50: 0.562 µM
DU-145 [14]; read-out: TGI
  TGI: 6.55 µM
DU-145 [14]; read-out: pTGI (converted)
  TGI: 6.61 µM
SF-268
  growth at 0.01 µM: 99%
